Experiment [1] concerns Smad signaling pathway of TGFβRI. Description: Inhibition of Smad signaling pathway of TGFβRI (3TP-lux luciferase reporter in HepG2 cells). Format: cell-based. Conditions: HepG2, 3TP-lux plasmid, 18 hours; for IC50: Homo sapiens. On the procedure:
The inhibition effect of the compounds of the present invention on Smad signaling pathway of TGFβRI was determined by the following in vitro test.
The inhibition effect of the compounds of the present invention on Smad signaling pathway of TGFβRI was determined by the following experimental method:
On a 96-well plate, 100 μL of HepG2 cell (TCHu 72, Cell Bank of Typical Culture Collection Committee of Chinese Academy of Sciences) was seeded on an EMEM medium containing 10% FBS (42360-099, Gibco) in each well. The seeding density is 2.5×10^4 cells/well. The cells were incubated overnight at 37° C., in 5% CO2. Each well was replaced with fresh EMEM medium containing 10% FBS. 0.1 μg of 3TP-lux plasmid (11767, Biovector Science Lab, Inc.) was transfected in each well. The cells were further incubated for 24 hours at 37° C., in 5% CO2. Each well was replaced with 90 μL of EMEM medium containing 0.5% FBS, then the cells were starved for 6 hours. The compounds were formulated as a 20 mM stock solution, which was diluted in gradient to a 400× concentration with 100% DMSO, and further 40-fold diluted with EMEM containing 0.5% FBS. The cell culture plate was taken out, then 10 μl of diluted compound or control (0.25% DMSO) was added to each well respectively. The plate was shaken gently, then incubated for 18 hours in an incubator at 37° C., in 5% CO2. Finally, 100 μl of detection reagent ONE-Glo™ Luciferase Assay (E6110, Promega) was added to each well, and the plate was placed in dark at room temperature for 10 minutes. The chemiluminescence signal values were measured with a Victor 3.0 (PerkinElmer). The IC50 values of the compounds were calculated using Graphpad Prism software based on each concentration of the compound and the corresponding signal value thereof.
(In general: In a reporter assay the amount or activity of a reporter protein is the signal.)

Experiment [2] concerns the target TGFβRI kinase ALK5 (Homo sapiens (Human), UniProt P36897). Description: Inhibition of TGFβRI kinase ALK5 activity (ADP-Glo kit). It is filed as biochemical. The settings on record: ATP 50 μM, 27° C. 2.5 hours. On the procedure: The inhibition effect of TGFβRI kinase activity in vitro was determined by the following method.
The inhibition effect of the compounds of the present invention on TGFβRI kinase ALK5 activity was determined by the following experimental method:
TGFβRI kinase assay kit (V4093, Promega) was used to assay enzyme activity. 2 μl of enzyme solution (the final concentration of enzyme in the reaction system was 2 ng/μL) formulated with reaction buffer (40 mM Tris pH 7.5, 20 mM MgCl2, 0.1 mg/ml BSA), 1 μl of a 3-fold gradient dilution of the compounds dissolved in 5% DMSO, and 2 μl of a mixed solution of ATP and TGFβRI substrate peptide (the final concentration of ATP was 50 μM, and the final concentration of substrate was 0.2 μg/μL) were added successively to a 384-well plate (4514, Corning). After reaction at 27° C. for 2.5 hours, 5 μl of ADP-Glo solution in the kit was added to each well, then the plate was placed at 27° C. for 40 minutes. 10 μl of kinase assay reagent was then added to each well, then the plate was placed at 27° C. for 30 minutes. The chemiluminescence signal values were measured with a Victor 3 (PerkinElmer) multi-function microplate reader. The IC50 values of the compounds for enzyme inhibition were calculated using Graphpad prism software based on each concentration of the compound and the corresponding signal value thereof.
Background: ADP-Glo turns the ADP formed in a reaction into a luminescent signal.

For experiment [3], the system named is NIH3T3 cell. Kind of experiment: Inhibition of NIH3T3 cell proliferation (CellTiter-Glo). The settings on record: NIH3T3, 72 hours, 0.5% FBS; for IC50: Mus musculus. Format: cell-based. The protocol:
The inhibition effect of the compounds of the present invention on NIH3T3 cell proliferation was determined by the following in vitro test.
The inhibition effect of the compounds of the present invention on NIH3T3 cell proliferation was determined by the following experimental method:
On a 96-well white plate with transparent bottom (3903, Corning), 100 μL of NIH3T3 cell (GNM6, Cell Bank of Typical Culture Collection Committee of Chinese Academy of Sciences) was seeded in a DMEM medium containing 10% FBS (SH1-30243.01, GE) in each well. The seeding density is 2000 cells/well. The cells were incubated overnight at 37° C., in 5% CO2. After overnight incubation, each well was replaced with 90 μL of DMEM medium containing 0.5%0 FBS. 10 μl of a 3-fold gradient dilution of the compounds with DMEM medium containing 0.5% FBS was then added, and the plate was incubated for 72 hours in a cell incubator at 37° C., in 5% CO2. Finally, 50 μL of CellTiter-Glo (G7573, Promega) was added to each well. After incubation for 10 minutes at room temperature, the chemiluminescence signal values were measured with a Victor 3 microplate reader (PerkinElmer). The IC50 values of the compounds were calculated using Graphpad Prism software based on each concentration of the compound and the corresponding signal value thereof.
(ATP-based viability assays read luminescence as a measure of living cells.)

One may read the IC50 as the point on the concentration scale where inhibition reaches its midpoint. A lower IC50 goes with inhibition by little substance.

TGFβRI kinase ALK5, sequence (P36897 34-503): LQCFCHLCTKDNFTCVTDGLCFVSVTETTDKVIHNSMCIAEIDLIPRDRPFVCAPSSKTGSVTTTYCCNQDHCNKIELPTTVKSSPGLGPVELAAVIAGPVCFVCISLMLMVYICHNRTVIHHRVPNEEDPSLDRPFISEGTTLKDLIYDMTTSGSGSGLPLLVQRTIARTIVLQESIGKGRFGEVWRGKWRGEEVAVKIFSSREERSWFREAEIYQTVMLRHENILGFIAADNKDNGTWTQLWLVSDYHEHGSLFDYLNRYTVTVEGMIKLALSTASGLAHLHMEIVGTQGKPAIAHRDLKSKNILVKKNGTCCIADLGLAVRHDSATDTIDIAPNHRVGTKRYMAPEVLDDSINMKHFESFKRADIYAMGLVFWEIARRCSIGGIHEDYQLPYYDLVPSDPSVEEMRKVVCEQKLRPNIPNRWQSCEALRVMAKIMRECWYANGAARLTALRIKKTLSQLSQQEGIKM

Regarding `Cc1cccc(-c2nn(C3CC3)cc2-c2ccnc(-c3ccc(C#N)cc3)c2)n1` [Example 7, 4-(4-(1-Cyclopropyl-3-(6-methylpyridin-2-yl)-1H-pyrazol-4-yl)pyridin-2-yl)benzonitrile], in experiment [1], the “Maximum inhibition rate (%)” value came out at 98% and the IC50 worked out at 0.168 µM.
Regarding `Cc1cccc(-c2nn(C3CCCC3)cc2-c2ccnc(-c3ccc(S(C)(=O)=O)cc3)c2)n1` [Example 3, 4-(1-Cyclopentyl-3-(6-methylpyridin-2-yl)-1H-pyrazol-4-yl)-2-(4-(methylsulfonyl)phenyl)pyridine], the IC50 in experiment [2] worked out at 0.241 µM; in experiment [3] it was 0.366 µM; in experiment [1], 0.057 µM. Also, the “Maximum inhibition rate (%)” value in experiment [3] is listed as 105%; in experiment [1], 101%.
The corresponding values for `Cc1cccc(-c2nn([C@@H]3CCN(S(C)(=O)=O)C3)cc2-c2ccnc(-c3ccc(S(C)(=O)=O)cc3)c2)n1` [Example 8, (R)-4-(3-(6-Methylpyridin-2-yl)-1-(1-(methylsulfonyl)pyrrolidin-3-yl)-1H-pyrazol-4-yl)-2-(4-(methylsulfonyl)phenyl)pyridine] are 0.37 µM, 0.49 µM, 0.218 µM, 114% and 98%.

The values above are taken from US10899741B2, “3,4-bipyridyl pyrazole derivative, and preparation method therefor and medical application thereof” (Jiangsu Hengrui Medicine Co., Ltd., priority 2016, dated 2021).
